Measurements: patent US11261189B2, “Substituted 2,4 diamino-quinoline as new medicament for fibrosis, autophagy and cathepsins B (CTSB), L (CTSL) and D (CTSD) related diseases” (Genoscience Pharma, priority 2018, dated 2022)
Structures can show the parent of a compound that is named as a salt.

Tested on: cathepsins B and L (CTSB/L)
Assay: Overall cathepsins B and L (CTSB/L) peptidase activity in lysates of treated HepG2 cells (Z-FR-AMC substrate)
Format: cell-based
Settings: for CTSB/L activity versus NT: 6 hours of treatment
Description: Lysosomal functions was investigated in a hepatocellular carcinoma (HCC) cell line HepG2 after 6 hours and 24 hours of treatment with compound 2-3 (the hydrochloride salt form of compound 2-2) using functional assays of some lysosomal enzymes activity: two cysteine proteinases: cathepsin B (CTSB) and cathepsin L (CTSL), and one aspartic proteinase: cathepsin D (CTSD). Two sets of three concentrations of compound 2-3 (1 μM, 2 μM, and 4 μM for 6 hours, and 0.5 μM, 1 μM and 2 μM for 24 hours) were tested at least in triplicate and four independent experiments were performed. Salinomycin (7.5 μM for 6 hours and 24 hours) was used as a positive control.
The HepG2 cell line was maintained in DMEM (Dulbecco's Modified Eagle Media) high glucose (Cat #L0103-500, Dutscher) containing 1% penicillin-streptomycin (Cat #P06-07100, Dutscher) and 10% FBS (Fetal Bovine Serum) (Cat #11543407, Life Technologies). Cells were cultured at 37° C. with 5% CO2.
The day before the experiment, 6-well plates (Cat #353046, Dutscher) with 250,000 cells in 2.7 mL of medium per well were prepared.
Compound 2-3 was dissolved with filtrated H2O mQ to make a 10 mM stock solution and serial working solutions (10× solutions) were prepared with the diluent (=culture medium with 0.4% H2O mQ) at 5 μM, 10 μM, 20 μM and 40 μM: the “dilution 1” is made from the 10 mM stock solution in the culture medium and the following serial dilutions were made in the diluent to maintain a constant percentage of H2O.
Salinomycin [CAS 53003-10-4] was used as positive control and was dissolved with methanol to make a 10 mM stock solution and a 10× solution at 75 μM was prepared with the culture medium.
300 μL of compound 2-3 10× solutions (solutions at 10 μM, 20 μM and 40 μM for 6 hours of treatment and solutions at 5 μM, 10 μM and 20 μM for 24 hours of treatment) or 300 μL of diluent (=non-treated (NT) condition) or 300 μL of Salinomycin 10× solution were dispensed in the appropriate wells (4 wells/condition). After cells treatment, 6-well plates were returned to incubator for 6 hours or 24 hours.
After 6 hours or 24 hours of cells treatment, the medium was removed from each well. The cells were carefully rinsed with PBS (phosphate-buffered saline, Cat #L0615-500, Dutscher) and detached with 500 μL per well of a trypsin solution. After 5 min of trypsin (Cat #L0930-100, Dutscher) incubation at 37° C., 800 μL of medium was added per well and transferred to a 1.5 mL tube. Then, 800 μL of PBS was used to rinse each well and the corresponding solution was pooled in each corresponding 1.5 mL tube. […] Total protein concentration was assessed using the Bradford reagent (Cat #B6916-500ML, Sigma-Aldrich) and cellular lysates were stored at −80° C. until catalytic activity measurement. […]

CC(C)(C)NC1CCN(c2cc(NCc3ccc(Cl)cc3)nc3ccccc23)CC1 [2-3, 2-(4-chlorobenzylamino)-4-(4-tert-butylaminopiperidin-1-yl)-quinoline Hydrochloride Salt]
CTSB/L activity versus NT (HepG2, 2 μM): 78.0%
CTSB/L activity versus NT (HepG2, 4 μM): 55.3%
inhibition of cathepsins B and L (CTSB/L) compare to the control (HepG2, 2 μM, 4 μM for 6 hours and 1 μM, 2 μM for 24 hours, p<0.05): statistically significant
